In the NIST ThermoML archive (doi:10.1016/j.jct.2017.03.010):
Numbers after ± are expanded uncertainties.

Details: Liquid, Closed cell (Static) method

Question: With `FC(F)C(F)F` [1,1,2,2-tetrafluoroethane] as the compound, how does the “vapor or sublimation pressure” value (303.15 K) read?
Answer: 613.8 ± 2.1 kPa

Question: And the “vapor or sublimation pressure” value (313.15 K)?
Answer: 817.1 ± 2.7 kPa

Question: What about the “vapor or sublimation pressure” value (323.15 K) of the same compound?
Answer: 1065.9 ± 3.5 kPa

Question: What about the “vapor or sublimation pressure” value (333.15 K) of the same compound?
Answer: 1368.5 ± 4.5 kPa

Question: What about the “vapor or sublimation pressure” value (343.15 K) of the same compound?
Answer: 1730.2 ± 5.7 kPa
